One assay relates to Escherichia coli. The experiment in a line: Antimicrobial activity against Escherichia coli at 100 ug. It counts as functional, organism-based.
A short description of assay [1]: Antitumor activity against human 9KB cells. It counts as functional, cell-based.
The subject of a further assay is Pseudomonas aeruginosa. As to the kind of experiment: Antimicrobial activity against Pseudomonas aeruginosa at 100 ug. It counts as functional, organism-based.

The structures appear in SMILES notation. In brackets after ≈: the same amount, converted by molar mass. Activity calls are given as the source filed them. The calls are words filed in the database; no cut-off is given here.

The term IC50 denotes the concentration at which inhibition is half-maximal. A higher IC50 goes with a need for much substance. In the case of `C=C1CC[C@@H]([C@@]2(C)CC[C@H](C(C)(C)OC(C)=O)O2)[C@@H](O)[C@H]2C(C)=CC[C@@H]12` [DICTYOL H], the result in the assay with Escherichia coli and in the assay on Pseudomonas aeruginosa was inactive. In addition, the IC50 in assay [1] was determined as 22 µg/mL (≈ 60.7 µM).

These data come from ChEMBL document CHEMBL1151642, “Dictyol H, a New Tricyclic Diterpenoid from the Brown Seaweed Dictyota dentata” (J Nat Prod, 1985).
